According to patent US10144715B2, “Piperazine derivatives as liver X receptor modulators” (priority 2014, dated 2018):
Where two headings read alike, the source gives them in different places.

How the values were obtained:
[1] = target: T1, Gal4 DNA binding domain fused to the LBD of LXRα in HEK293 cells (Homo sapiens (Human), UniProt Q13133); experiment: LXR luciferase transcriptional reporter gene assay, antagonist mode (200 nM T0901317), LXRα; format: cell-based; settings: for IC50: read-out: Cell LXRα IC50
T1 sequence (Q13133 209-447): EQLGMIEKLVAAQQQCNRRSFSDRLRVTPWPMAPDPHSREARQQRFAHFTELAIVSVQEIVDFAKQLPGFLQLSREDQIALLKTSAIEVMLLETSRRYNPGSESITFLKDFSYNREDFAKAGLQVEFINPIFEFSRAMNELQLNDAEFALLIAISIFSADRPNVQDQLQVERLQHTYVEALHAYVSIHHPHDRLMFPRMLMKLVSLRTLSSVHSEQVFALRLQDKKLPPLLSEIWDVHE

LXR α LBD protein [2] = target: T2, LXR α LBD protein (Homo sapiens (Human), UniProt Q13133); experiment: Human LXRα coactivator recruitment FRET assay, agonist mode; format: biochemical; settings: agonist mode
T2 sequence (Q13133 209-447): as above
Outline: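 Time-resolved FRET (delay 100 µs, window 200 µs) after 2 h rt incubation of compound with 10 nM (2×) GST-tagged LXRα or LXRβ LBD plus 200 nM fluorescein-SRC2-3 and 20 nM Tb-anti-GST (4×). Percent control vs concentration fit to four-parameter model; EC50 at inflection.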

LXR α LBD protein [3] = target: T2, LXR α LBD protein; experiment: LXR α radioligand binding assay (SPA, competition with [3H]TO901317); settings: read-out: LXRα Binding Ki
[4] = target: T1, Gal4 DNA binding domain fused to the LBD of LXRα in HEK293 cells; experiment: LXR luciferase transcriptional reporter gene assay, agonist mode, LXRα; format: cell-based; settings: for EC50: read-out: Cell LXRα EC50
LXR β LBD protein [5] = target: T3, LXR β LBD protein (Homo sapiens (Human), UniProt P55055); experiment: biochemical; format: binding; settings: read-out: LXRβ Binding Ki
Target sequence in this assay (P55055 222-460 limits assumed): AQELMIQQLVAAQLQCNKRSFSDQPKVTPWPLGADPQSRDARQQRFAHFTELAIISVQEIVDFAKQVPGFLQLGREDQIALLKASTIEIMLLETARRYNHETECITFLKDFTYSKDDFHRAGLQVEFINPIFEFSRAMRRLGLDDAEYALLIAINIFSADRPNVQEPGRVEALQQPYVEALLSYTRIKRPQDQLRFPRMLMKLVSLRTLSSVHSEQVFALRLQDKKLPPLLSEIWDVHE

[6] = target: T4, Gal4 DNA binding domain fused to the LBD of LXRβ in HEK293 cells (Homo sapiens (Human), UniProt P55055); experiment: cell-based; format: cell-based
T4 sequence (P55055 222-460 limits assumed): as above

LXR β LBD protein [7] = target: T3, LXR β LBD protein; experiment: biochemical; format: biochemical
Target sequence in this assay (P55055 222-460): as the sequence (P55055 222-460 limits assumed) above

[8] = target: T4, Gal4 DNA binding domain fused to the LBD of LXRβ in HEK293 cells; experiment: cell-based
[9] = antagonist mode, 200 nM T0901317, HEK293 reporter gene assay

SMILES	EC50 (LXR α LBD protein [2]) [nM]	FRET LXRα efficacy (LXR α LBD protein [2]) [%]	Cell LXRα efficacy [4]	IC50 [1, 9] [nM]	EC50 ([4]; agonist mode) [nM]	Ki (LXR β LBD protein [5]) [nM]	IC50 [6] [nM]	EC50 [8] [nM]	also measured
CS(=O)(=O)c1cccc(N2CCN(C[C@H]3CC[C@H](C(F)F)CC3)[C@@H](c3ccccc3)C2)c1 (single isomer, unassigned) [48-19]	1880	13	712 (25) %	–	–	–	–	–	Cell LXRα efficacy [1]: 1630 (67) %; IC50 [1]: 1630 nM; Ki (LXR α LBD protein [3]): 313 nM; EC50 [4]: 712 nM
CS(=O)(=O)c1cccc(N2CCN(C[C@H]3CC[C@@H](C(F)F)CC3)[C@@H](c3ccccc3)C2)c1 (single isomer, unassigned) [Cpd No 48-17]	287	36	127 (39) %	1350	127	–	–	–	Ki (LXR α LBD protein [3]): 60 nM
CC(C)(C)OC(=O)N1CCN(c2cccc(S(C)(=O)=O)c2)C[C@H]1Cc1ccccc1 [1-8, tert-butyl (R)-2-benzyl-4-(3-(methylsulfonyl)phenyl)piperazine-1-carboxylate]	105	18	1146 (34) %	4710	1150	–	–	–	–
CC(C)[C@@H]1CN(c2ccc(C(N)=O)c(S(C)(=O)=O)c2)CCN1c1nccc(C(F)(F)F)n1 [4-2, (R)-4-(3-isopropyl-4-(4-(trifluoromethyl)pyrimidin-2-yl)piperazin-1-yl)-2-(methylsulfonyl)benzamide]	293	87	1172 (71) %	> 10000	1170	–	–	–	–
CC(C)[C@@H]1CN(c2cccc(S(C)(=O)=O)c2)CCN1C(=O)OCC(C)(C)C [5-6, neopentyl (R)-2-isopropyl-4-(3-(methylsulfonyl)phenyl)piperazine-1-carboxylate]	234	52	1424 (48) %	9460	1420	–	–	–	–
CC(C)COC(=O)N1CCN(c2cccc(S(C)(=O)=O)c2)C[C@H]1C(C)C [5-7, isobutyl (R)-2-isopropyl-4-(3-(methylsulfonyl)phenyl)piperazine-1-carboxylate]	340	58	1919 (44) %	5120	1920	–	–	–	–
CC(C)[C@@H]1CN(c2cccc(S(C)(=O)=O)c2)CCN1c1ncccn1 [7-2, (R)-2-(2-isopropyl-4-(3-(methylsulfonyl)phenyl)piperazin-1-yl)pyrimidine]	1030	23	–	5500	> 20000	–	–	–	–
Cc1nc(N2CCN(c3ccc(F)c(S(C)(=O)=O)c3)C[C@H]2C(C)C)ncc1F [7-23, (R)-5-fluoro-2-(4-(4-fluoro-3-(methylsulfonyl)phenyl)-2-isopropylpiperazin-1-yl)-4-methylpyrimidine]	1130	73	1531 (52) %	> 10000	1530	–	–	–	–
CC(C)(O)[C@@H]1CN(c2cccc(S(C)(=O)=O)c2)CCN1c1nccc(C(F)(F)F)n1 [7-24, (S)-2-(4-(3-(methylsulfonyl)phenyl)-1-(4-(trifluoromethyl)pyrimidin-2-yl)piperazin-2-yl)propan-2-ol]	457	83	1586 (50) %	–	–	43	9	275	Cell LXRβ efficacy [6]: 9 (64) %; FRET LXRβ efficacy (LXR β LBD protein [7]): 14 (74) %; EC50 (LXR β LBD protein [7]; read-out: FRET LXRβ EC50): 14 nM; Cell LXRβ efficacy [8]: 275 (37) %; Ki (LXR α LBD protein [3]): 1030 nM; EC50 [4]: 1590 nM
CC(C)[C@@H]1CN(c2cccc(S(C)(=O)=O)c2)CCN1c1ccnc(C(F)(F)F)n1 [7-50, (R)-4-(2-isopropyl-4-(3-(methylsulfonyl)phenyl)piperazin-1-yl)-2-(trifluoromethyl)pyrimidine]	298	59	2029 (50) %	4590	2030	–	–	–	Cell LXRα efficacy [1]: 4587 (78) %
CC(C)[C@@H]1CN(c2ccc(F)c(S(C)(=O)=O)c2)CCN1c1ncc(CN(C)C)c(C(F)(F)F)n1 [15-3, (R)-1-(2-(4-(4-fluoro-3-(methylsulfonyl)phenyl)-2-isopropylpiperazin-1-yl)-4-(trifluoromethyl)pyrimidin-5-yl)-N,N-dimethylmethanamine]	–	–	1144 (25) %	–	1140	47	900	74	Cell LXRβ efficacy [6, 9]: 900 (93) %; Cell LXRβ efficacy ([8]; agonist mode): 74 (17) %
CC(C)[C@@H]1CN(c2ccc(F)c(S(C)(=O)=O)c2)CCN1c1ncc(CN2CC(O)C2)c(C(F)(F)F)n1 [15-4, (R)-1-((2-(4-(4-fluoro-3-(methylsulfonyl)phenyl)-2-isopropylpiperazin-1-yl)-4-(trifluoromethyl)pyrimidin-5-yl)methyl)azetidin-3-ol]	–	–	2838 (20) %	–	2840	100	1440	182	Cell LXRβ efficacy [6, 9]: 1438 (104) %; Cell LXRβ efficacy ([8]; agonist mode): 182 (13) %
CC(C)[C@@H]1CN(c2ccc(F)c(S(C)(=O)=O)c2)CCN1c1ncc(CNS(C)(=O)=O)c(C(F)(F)F)n1 [15-7, (R)-N-((2-(4-(4-fluoro-3-(methylsulfonyl)phenyl)-2-isopropylpiperazin-1-yl)-4-(trifluoromethyl)pyrimidin-5-yl)methyl)methanesulfonamide]	–	–	2315 (23) %	–	–	40	1770	198	Cell LXRβ efficacy [6, 9]: 1773 (113) %; Cell LXRβ efficacy ([8]; agonist mode): 198 (18) %; Ki (LXR α LBD protein [3]): 512 nM; EC50 [4]: 2320 nM
CC(C)[C@@H]1CN(c2ccc(F)c(S(C)(=O)=O)c2)CCN1c1nccc(OCC(F)(F)F)n1 [44-3, (R)-2-(4-(4-fluoro-3-(methylsulfonyl)phenyl)-2-isopropylpiperazin-1-yl)-4-(2,2,2-trifluoroethoxy)pyrimidine]	–	–	–	–	–	67	91	> 20000	Cell LXRβ efficacy [6]: 91 (93) %
CS(=O)(=O)c1cccc(N2CCN(Cc3ccc(C(F)(F)F)c(Cl)c3)C(C3CCCCC3)C2)c1 (centres unmarked) [46-27, 1-(3-chloro-4-(trifluoromethyl)benzyl)-2-cyclohexyl-4-(3-(methylsulfonyl)phenyl)piperazine]	157	79	1100 (77) %	> 10000	1100	–	–	–	–
CC(C)[C@@H]1CN(c2cccc(S(C)(=O)=O)c2)CCN1c1ncc(Cl)cn1 [Cpd No 7-4, (R)-5-chloro-2-(2-isopropyl-4-(3-(methylsulfonyl)phenyl)piperazin-1-yl)pyrimidine]	281	76	1219 (70) %	> 10000	1220	–	–	–	–
CC(C)[C@@H]1CN(c2cccc(S(C)(=O)=O)c2)CCN1c1ccc(C(F)(F)F)cn1 [Cpd No 7-35, (R)-2-isopropyl-4-(3-(methylsulfonyl)phenyl)-1-(5-(trifluoromethyl)pyridin-2-yl)piperazine]	13	79	138 (97) %	> 10000	138	–	–	–	–
CC(C)[C@@H]1CN(c2ccc(F)c(S(C)(=O)=O)c2)CCN1c1ncc(C(=O)N(C)C)c(C(F)(F)F)n1 [Cpd No 17-1, (R)-2-(4-(4-fluoro-3-(methylsulfonyl)phenyl)-2-isopropylpiperazin-1-yl)-N,N-dimethyl-4-(trifluoromethyl)pyrimidine-5-carboxamide]	–	–	–	–	–	123	667	244	Cell LXRβ efficacy [6]: 667 (84) %; Cell LXRβ efficacy [8]: 244 (8) %
CS(=O)(=O)c1cccc(N2CCN(CC3CCC(O)(C(F)(F)F)CC3)[C@@H](c3ccccc3)C2)c1 (stereo partly drawn) [Cpd No 48-1, (S)-4-((4-(3-(methylsulfonyl)phenyl)-2-phenylpiperazin-1-yl)methyl)-1-(trifluoromethyl)cyclohexan-1-ol]	1520	19	760 (31) %	–	–	–	–	–	Cell LXRα efficacy [1]: 3946 (105) %; IC50 [1]: 3950 nM; EC50 [4]: 760 nM
CC1(C)CCC(CN2CCN(c3cccc(S(C)(=O)=O)c3)C[C@@H]2c2ccccc2)CC1 [Cpd No 48-4, (S)-1-((4,4-dimethylcyclohexyl)methyl)-4-(3-(methylsulfonyl)phenyl)-2-phenylpiperazine]	301	39	279 (61) %	–	–	–	–	–	Cell LXRα efficacy [1]: 6447 (79) %; IC50 [1]: 6450 nM; Ki (LXR α LBD protein [3]): 39 nM; EC50 [4]: 279 nM
